Measured values published in the supplement of paper PMC11208160.

Assay: recombinant barcode read abundance after kanamycin selection (control-corrected) (log10(CPM+1)); higher = more efficient recombination; sequences stand for … in AGTGCAGAGAAAATCGGCCAGTTTTCTCTGCCTGCAGTCCGCATGCCGT…AGATTTATGCAGCGGACTGCCTTTCTCCCAAAGTGATAAACCGGACAGTATCATGGACCGGTTTTCCCGGTAATCCGTATTTGCAAGGTTGGTTTCACT; site = the 11-nt target
How it was run: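 Oligos holding a promoter, target, barcode and the J23119-driven first 104 bases of the bridge RNA were Gibson-cloned into a vector that supplied the other 73 bp plus a T7-inducible recombinase. This library was co-electroporated with a donor plasmid into E. coli. Two replicates went on chloramphenicol/ampicillin LB agar (control) and two on chloramphenicol/ampicillin/kanamycin with 0.1 mM IPTG. Recombination efficiency is read from averaged, control-corrected barcode counts per million at recombinant junctions, reported as log10(CPM+1).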
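Further: IS621 recombinase and bridge RNA in Escherichia coli cells.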

First: ACGCGAGCTTGGGTTCTAACCTGTTGCGG (site ACGCGAGCTCG)
Second: TTGTATACTTGGGTTCTAACCTGTTGCCT (site TTGTATACTAG)
The “recombinant barcode read abundance (log10)” value of the first is lower: 0.316 for the first, 0.612 for the second.

First: CGGAAGCCTTGGGTTCTAACCTGTTGCCT (site CGGAAGCCTAG)
Second: GAAATGACTTGGGTTCTAACCTGTTGCCT (site GAAATGACTAG)
The “recombinant barcode read abundance (log10)” value of the first is higher: 1.74 for the first, 0.908 for the second.

First: CTTAGGACTTGGGTTCTAACCTGTTGCCT (site CTTAGGACTCG)
Second: GACGTAGCTTGGGTTCTAACCTGTTGCCT (site GACGTAGCTAG)
The “recombinant barcode read abundance (log10)” value of the first is lower: 0.0406 for the first, 1.6 for the second.

“TTCTGCGCTTGGGTTCTAACCTGTTGCCT (site TTCTGAGCTAG)” and “AATGCATCTTGGGTTCTAACCTGTTGCCT (site AATGTATCTAG)” are within 0.2 log units of each other in “recombinant barcode read abundance (log10)” value: 0.0215 for the first, 0.0299 for the second.

First: GAGGGCTCTTGGGTTCTAACCTGTTGCGG (site GAGGGCTCTCC)
Second: TACCTGACTTGGGTTCTAACCTGTTGCCT (site TACCTGACTAG)
The “recombinant barcode read abundance (log10)” value of the first is higher: 2.73 for the first, 0.688 for the second.

“GAAGAGCCTTGGGTTCTAACCTGTTGCCT (site GAAGGGCCTAG)” and “TCGAATGCTTGGGTTCTAACCTGTTGCCT (site TCGGATGCTAA)” are within 0.2 log units of each other in “recombinant barcode read abundance (log10)” value: 0.0404 for the first, 0.0663 for the second.

“ATGCCCTCTTGGGTTCTAACCTGTTGCCT (site ATGTCCTCTAG)” and “GGTGGCCCTTGGGTTCTAACCTGTTGCCT (site GCTGGCCCTAG)” are within 0.2 log units of each other in “recombinant barcode read abundance (log10)” value: 0.0521 for the first, 0.22 for the second.

Going from “TCAGGAGCTTGGGTTCTAACCTGTTGCGG (site TCAGGAGCTCC)” to “GTGTACCCTTGGGTTCTAACCTGTTGCGC (site GTGTACCCTGC)”, the “recombinant barcode read abundance (log10)” value rises from 2.07 to 3.13.

“CTTGGAGCTTGGGTTCTAACCTGTTGCCT (site CTTGGATCTAG)” and “AAGTGCTCTTGGGTTCTAACCTGTTGCCT (site AGGTGCTCTAG)” are within 0.2 log units of each other in “recombinant barcode read abundance (log10)” value: 0.145 for the first, 0.124 for the second.

First: TGGGTGACTTGGGTTCTAACCTGTTGCCT (site TGGGTGACTAG)
Second: AGGGCGCCTTGGGTTCTAACCTGTTGCTT (site CATTTAGCTCC)
The “recombinant barcode read abundance (log10)” value of the first is lower: 0.057 for the first, 0.822 for the second.

“TAACTAGCTTGGGTTCTAACCTGTTGCTA (site TAACTAGCTTA)” and “TGAAGTACTTGGGTTCTAACCTGTTGCCT (site TGAACTACTAG)” are within 0.2 log units of each other in “recombinant barcode read abundance (log10)” value: 0.141 for the first, 0.169 for the second.

Going from “ACTACCTCTTGGGTTCTAACCTGTTGCCT (site ACTACCTCTAG)” to “TAGAGGACTTGGGTTCTAACCTGTTGCAG (site TACAGGACTCT)”, the “recombinant barcode read abundance (log10)” value falls from 1.35 to 0.0593.

“TATGTAGCTTGGGTTCTAACCTGTTGCCT (site TATGTAGCTGG)” and “TTAACTACTTGGGTTCTAACCTGTTGCTA (site TTAACTACTTA)” are within 0.2 log units of each other in “recombinant barcode read abundance (log10)” value: 0.103 for the first, 0.152 for the second.

“CTGTAGCCTTGGGTTCTAACCTGTTGCTG (site CTGTAGCCTCA)” and “GCACTCTCTTGGGTTCTAACCTGTTGCCT (site GCACCCTCTAG)” are within 0.2 log units of each other in “recombinant barcode read abundance (log10)” value: 0.578 for the first, 0.568 for the second.

“TAGGCCACTTGGGTTCTAACCTGTTGCAT (site TAGGCCACTAG)” and “GACACGCCTTGGGTTCTAACCTGTTGCCT (site GACACGCCTAT)” are within 0.2 log units of each other in “recombinant barcode read abundance (log10)” value: 0.294 for the first, 0.146 for the second.

Compared with “CTACGTACTTGGGTTCTAACCTGTTGCTG (site CTACGTACTCA)”, “TCAAATTCTTGGGTTCTAACCTGTTGCCT (site TCATATTCTAG)” is lower in “recombinant barcode read abundance (log10)” value: 1.75 for the first, 0.0151 for the second.

“TTGGTCCCTTGGGTTCTAACCTGTTGCCT (site TTGGTTCCTAG)” and “GTGAGCCCTTGGGTTCTAACCTGTTGCCG (site GTGCGCTCTCG)” are within 0.2 log units of each other in “recombinant barcode read abundance (log10)” value: 0.131 for the first, 0.0474 for the second.

Compared with “ACAGCTTCTTGGGTTCTAACCTGTTGCCT (site ACAGCTTCTAG)”, “ACGTGCTCTTGGGTTCTAACCTGTTGCCT (site AGGTGCTCTAG)” is lower in “recombinant barcode read abundance (log10)” value: 1.53 for the first, 0.119 for the second.

Compared with “GACTTACCTTGGGTTCTAACCTGTTGCCT (site GACTTACCTAG)”, “CTACACTCTTGGGTTCTAACCTGTTGCCT (site CGACACTCTAG)” is lower in “recombinant barcode read abundance (log10)” value: 0.843 for the first, 0.28 for the second.

Compared with “GATTAGACTTGGGTTCTAACCTGTTGCCT (site AATTAGACTAG)”, “CCGTCACCTTGGGTTCTAACCTGTTGCCT (site CCGTCACCTAG)” is higher in “recombinant barcode read abundance (log10)” value: 0.308 for the first, 1.29 for the second.

“CATTGGACTTGGGTTCTAACCTGTTGCTT (site AATTGGACTAA)” and “GTGGAAGCTTGGGTTCTAACCTGTTGCCA (site GTGGAAGCTTG)” are within 0.2 log units of each other in “recombinant barcode read abundance (log10)” value: 0.222 for the first, 0.238 for the second.

First: CTAACGACTTGGGTTCTAACCTGTTGCGG (site CTAACGACTCC)
Second: AGCTTAGCTTGGGTTCTAACCTGTTGCCG (site AGCTTAGCTTG)
The “recombinant barcode read abundance (log10)” value of the first is higher: 2.47 for the first, 0.188 for the second.

“CACGCCTCTTGGGTTCTAACCTGTTGCCT (site AACGCCTCTAG)” and “CGGCCCTCTTGGGTTCTAACCTGTTGCCT (site CTGCCCTCTAG)” are within 0.2 log units of each other in “recombinant barcode read abundance (log10)” value: 0.116 for the first, 0.185 for the second.

Going from “GGGGATTCTTGGGTTCTAACCTGTTGCCT (site GGGGATTCTAG)” to “ACTACCTCTTGGGTTCTAACCTGTTGCCT (site AGTACCTCTAG)”, the “recombinant barcode read abundance (log10)” value falls from 2.05 to 0.0737.

Going from “ATGCCAACTTGGGTTCTAACCTGTTGCCT (site ATGCCGACTAG)” to “AGATCCACTTGGGTTCTAACCTGTTGCCT (site AGATCCACTAG)”, the “recombinant barcode read abundance (log10)” value rises from 0.204 to 0.832.

First: AACTTCTCTTGGGTTCTAACCTGTTGCCT (site AACTTCTCTAG)
Second: GTGTATACTTGGGTTCTAACCTGTTGCAT (site GTGTATACTAT)
The “recombinant barcode read abundance (log10)” value of the first is higher: 0.917 for the first, 0.589 for the second.

Going from “TCTGTGTCTTGGGTTCTAACCTGTTGCTA (site ATATCAACTCG)” to “AGCGAATCTTGGGTTCTAACCTGTTGCCG (site GAGCGTCCTTA)”, the “recombinant barcode read abundance (log10)” value rises from 0.0225 to 0.232.

First: GGTGAGACTTGGGTTCTAACCTGTTGCCA (site GGTGAGACTTG)
Second: GGGACGACTTGGGTTCTAACCTGTTGCTT (site GGGACGACTAA)
The “recombinant barcode read abundance (log10)” value of the first is higher: 2.14 for the first, 1.04 for the second.

Compared with “AAGAACTCTTGGGTTCTAACCTGTTGCCA (site GGCGTGCCTAC)”, “CAGGACCCTTGGGTTCTAACCTGTTGCCT (site CACGACCCTAG)” is higher in “recombinant barcode read abundance (log10)” value: 0.199 for the first, 0.437 for the second.

“TCTAAGCCTTGGGTTCTAACCTGTTGCAT (site TCTAATCCTAT)” and “AGAGAGGCTTGGGTTCTAACCTGTTGCGG (site CGAGAGTCTCC)” are within 0.2 log units of each other in “recombinant barcode read abundance (log10)” value: 0.0292 for the first, 0.125 for the second.

“CTATTGTCTTGGGTTCTAACCTGTTGCGC (site CTATTGTCTCC)” and “TTCACGTCTTGGGTTCTAACCTGTTGCCT (site TTCACGTCTAG)” are within 0.2 log units of each other in “recombinant barcode read abundance (log10)” value: 0.0404 for the first, 0.202 for the second.

“AGTCTCTCTTGGGTTCTAACCTGTTGCCG (site AGTCTCTCTTA)” and “GAATATTCTTGGGTTCTAACCTGTTGCCT (site GACTATTCTAG)” are within 0.2 log units of each other in “recombinant barcode read abundance (log10)” value: 0.0569 for the first, 0.0547 for the second.

Compared with “AGGAATTCTTGGGTTCTAACCTGTTGCCT (site AGAAATTCTAG)”, “TTAGTACCTTGGGTTCTAACCTGTTGCCT (site TTAGTACCTAG)” is higher in “recombinant barcode read abundance (log10)” value: 0.443 for the first, 2.55 for the second.
